# Measurements taken from article PMC11882969 (Nature Communications, 2025).
# Where “and” joins values, the source holds several entries; their conditions need not be identical. Equal entries are not always repeated.
# Target: hCB1 (Homo sapiens, UniProt P21554)
# Assay: bioSensAll ebBRET signaling profiling, hCB1
# Type: cell-based
# Parameters: host or cells: HEK293SL cells, transient PEI transfection
# Sequence of hCB1 (P21554 whole entry): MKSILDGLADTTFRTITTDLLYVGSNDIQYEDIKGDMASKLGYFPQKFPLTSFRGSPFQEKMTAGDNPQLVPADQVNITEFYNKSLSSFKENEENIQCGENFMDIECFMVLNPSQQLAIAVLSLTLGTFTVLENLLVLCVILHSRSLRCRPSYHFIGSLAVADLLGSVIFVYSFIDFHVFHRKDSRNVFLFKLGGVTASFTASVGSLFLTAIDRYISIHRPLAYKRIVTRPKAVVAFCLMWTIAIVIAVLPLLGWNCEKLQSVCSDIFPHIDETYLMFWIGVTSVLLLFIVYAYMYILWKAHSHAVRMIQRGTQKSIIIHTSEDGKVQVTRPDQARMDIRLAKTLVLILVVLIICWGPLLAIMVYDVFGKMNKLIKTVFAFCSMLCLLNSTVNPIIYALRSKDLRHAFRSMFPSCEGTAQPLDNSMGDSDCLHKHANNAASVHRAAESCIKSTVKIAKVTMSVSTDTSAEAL
structure (smiles),measurement,setting,value
COC(=O)C(C)(NC(=O)c1cc(C)n(-c2cccc(C(F)(F)F)c2)n1)c1cccs1 (centres unmarked) [‘4042],Gs hCB1,Log [Compound] (M) -4.63927,6296
same,Gz hCB1,Log [Compound] (M) -4.63927,112.813 and 91.1447
same,Barr2+GRK2 hCB1,Log [Compound] (M) -5.05788,70.2312 and 47.6394
same,G15 hCB1,Log [Compound] (M) -5.05788,113.05 and 88.4535
same,Gi1 hCB1,Log [Compound] (M) -5.05788,105.528 and 109.408 and 94.1617
same,Gi2 hCB1,Log [Compound] (M) -5.05788,116.649 and 83.6719
same,GoB hCB1,Log [Compound] (M) -5.05788,115.498 and 117.852 and 92.0047
same,Gq hCB1,Log [Compound] (M) -5.05788,1109
same,Gs hCB1,Log [Compound] (M) -5.05788,6591
same,Gz hCB1,Log [Compound] (M) -5.05788,89.4695 and 99.3467
same,G13 hCB1,Log [Compound] (M) -5.47381,42.3393 and 80.0269
same,G15 hCB1,Log [Compound] (M) -5.47381,106.626 and 91.4256
same,Gi1 hCB1,Log [Compound] (M) -5.47381,102.594 and 101.052 and 96.5342
same,Gi2 hCB1,Log [Compound] (M) -5.47381,113.717 and 80.6941
same,GoB hCB1,Log [Compound] (M) -5.47381,111.936 and 119.903 and 88.1947
same,Gq hCB1,Log [Compound] (M) -5.47381,1096
same,Gs hCB1,Log [Compound] (M) -5.47381,6432
same,Gz hCB1,Log [Compound] (M) -5.47381,99.3173 and 98.4249
same,Barr2+GRK2 hCB1,Log [Compound] (M) -5.89285,78.4199 and 57.3671
same,G15 hCB1,Log [Compound] (M) -5.89285,110.351 and 94.8449
same,Gi1 hCB1,Log [Compound] (M) -5.89285,96.0236 and 103.056 and 95.3776
same,Gi2 hCB1,Log [Compound] (M) -5.89285,120.967 and 77.6348
same,GoB hCB1,Log [Compound] (M) -5.89285,107.616 and 111.235 and 93.9859
same,Gq hCB1,Log [Compound] (M) -5.89285,1179
same,Gs hCB1,Log [Compound] (M) -5.89285,6305
same,Gz hCB1,Log [Compound] (M) -5.89285,104.129 and 105.45 and 96.7384
same,Barr2+GRK2 hCB1,Log [Compound] (M) -6.31878,80.7003 and 54.8939
same,G15 hCB1,Log [Compound] (M) -6.31878,115.7 and 96.7912
same,Gi1 hCB1,Log [Compound] (M) -6.31878,96.367 and 108.992 and 101.754
same,Gi2 hCB1,Log [Compound] (M) -6.31878,121.929 and 79.8783
same,GoB hCB1,Log [Compound] (M) -6.31878,95.5518 and 109.274 and 88.1947
same,Gq hCB1,Log [Compound] (M) -6.31878,1143
same,Gs hCB1,Log [Compound] (M) -6.31878,6312
same,Gz hCB1,Log [Compound] (M) -6.31878,91.7649 and 96.1616 and 90.8724
same,Barr2+GRK2 hCB1,Log [Compound] (M) -6.72585,68.6764 and 46.9799
same,G15 hCB1,Log [Compound] (M) -6.72585,112.142 and 94.2925
same,Gi1 hCB1,Log [Compound] (M) -6.72585,106.09 and 92.9585 and 96.5936
same,Gi2 hCB1,Log [Compound] (M) -6.72585,109.48 and 81.9179
same,GoB hCB1,Log [Compound] (M) -6.72585,86.2761 and 114.112 and 87.3057
same,Gq hCB1,Log [Compound] (M) -6.72585,1077
same,Gs hCB1,Log [Compound] (M) -6.72585,6405
same,Gz hCB1,Log [Compound] (M) -6.72585,96.9343 and 94.4158 and 89.6782
same,Barr2+GRK2 hCB1,Log [Compound] (M) -7.14267,59.7621 and 50.2774
same,G15 hCB1,Log [Compound] (M) -7.14267,114.268 and 99.1321
same,Gi1 hCB1,Log [Compound] (M) -7.14267,107.604 and 101.422 and 97.765
same,Gi2 hCB1,Log [Compound] (M) -7.14267,109.219 and 83.8759
same,GoB hCB1,Log [Compound] (M) -7.14267,86.7157 and 119.974 and 89.2869
